Results on 5 compounds are retold here after ChEMBL document CHEMBL5465560, “Selectivity Literature for EUbOPEN Chemogenomic Library” (2024).

The target in test [1] is T1, Rhodopsin kinase GRK1 (Homo sapiens) (UniProt Q15835).
T1 sequence (whole entry): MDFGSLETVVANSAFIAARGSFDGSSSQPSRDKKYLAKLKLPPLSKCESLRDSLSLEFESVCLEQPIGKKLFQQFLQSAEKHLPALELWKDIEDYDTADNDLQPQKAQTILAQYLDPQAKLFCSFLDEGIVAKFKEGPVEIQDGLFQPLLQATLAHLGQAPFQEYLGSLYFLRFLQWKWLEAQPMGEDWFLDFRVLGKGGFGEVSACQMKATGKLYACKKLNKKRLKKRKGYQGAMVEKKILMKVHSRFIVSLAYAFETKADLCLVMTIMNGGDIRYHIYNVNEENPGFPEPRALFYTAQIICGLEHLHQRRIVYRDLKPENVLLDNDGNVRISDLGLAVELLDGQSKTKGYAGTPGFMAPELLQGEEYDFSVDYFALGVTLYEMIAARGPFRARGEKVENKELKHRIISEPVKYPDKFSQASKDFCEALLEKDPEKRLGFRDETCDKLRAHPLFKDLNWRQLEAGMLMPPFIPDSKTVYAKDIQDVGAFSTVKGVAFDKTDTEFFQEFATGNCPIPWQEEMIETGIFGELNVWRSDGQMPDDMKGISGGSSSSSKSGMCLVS
Briefly: Selectivity interaction (KinomeScan (DiscoverX)) EUB0001619a GRK1. As to conditions: at 1 µM.

Test [2] concerns the target Tyrosine-protein kinase Fer (Homo sapiens) (UniProt P16591). Put plainly: Selectivity interaction (ActivX KiNativ screen (kinase selectivity in THP-1 cell lysates)) EUB0000639a FER. Type of test: subcellular. As to conditions: lysate, at 5 µM.
Test [3] addresses T2, Inhibitor of nuclear factor kappa-B kinase subunit epsilon (Homo sapiens) (UniProt Q14164).
T2 sequence (whole entry): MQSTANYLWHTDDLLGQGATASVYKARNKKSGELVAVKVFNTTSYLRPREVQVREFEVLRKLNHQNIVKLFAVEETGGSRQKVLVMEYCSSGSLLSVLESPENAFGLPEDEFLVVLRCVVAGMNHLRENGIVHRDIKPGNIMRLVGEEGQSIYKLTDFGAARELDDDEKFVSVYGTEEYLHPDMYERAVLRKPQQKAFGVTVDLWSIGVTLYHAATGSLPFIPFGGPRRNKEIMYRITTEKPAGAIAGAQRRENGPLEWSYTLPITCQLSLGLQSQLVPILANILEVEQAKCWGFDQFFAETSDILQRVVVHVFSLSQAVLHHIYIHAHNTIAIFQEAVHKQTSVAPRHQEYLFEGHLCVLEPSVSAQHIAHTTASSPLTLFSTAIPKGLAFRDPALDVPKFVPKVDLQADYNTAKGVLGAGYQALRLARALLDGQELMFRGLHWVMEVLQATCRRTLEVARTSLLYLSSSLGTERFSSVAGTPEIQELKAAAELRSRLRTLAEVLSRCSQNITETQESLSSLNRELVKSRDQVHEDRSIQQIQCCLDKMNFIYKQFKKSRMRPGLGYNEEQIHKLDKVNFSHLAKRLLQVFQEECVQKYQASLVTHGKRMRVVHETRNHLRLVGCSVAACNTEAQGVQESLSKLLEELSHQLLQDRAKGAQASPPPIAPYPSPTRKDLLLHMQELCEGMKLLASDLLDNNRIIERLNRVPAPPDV
Put plainly: Selectivity interaction (Kinase panel (Invitrogen)) EUB0000639a IKBKE. As to conditions: at 200 nM.

Test [4] concerns the target Leucine-rich repeat serine/threonine-protein kinase 2 (Homo sapiens, UniProt Q5S007). Put plainly: Selectivity interaction (Kinase panel (Invitrogen)) EUB0000639a LRRK2. As to conditions: at 200 nM.
The target in test [5] is Mitogen-activated protein kinase kinase kinase 11 (Homo sapiens) (UniProt Q16584). Put plainly: Selectivity interaction (ProQinase) EUB0000171b MAP3K11.
Test [6] has as its target Ribosomal protein S6 kinase alpha-1 (Homo sapiens, UniProt Q15418). Briefly: Selectivity interaction (Kinase panel (DSF assay)) EUB0001559a RPS6KA1. On the technique in general: Differential scanning fluorimetry follows unfolding on heating by fluorescence.
Test [7] addresses T3, Mitogen-activated protein kinase kinase kinase 12 (Homo sapiens) (UniProt Q12852).
T3 sequence (whole entry): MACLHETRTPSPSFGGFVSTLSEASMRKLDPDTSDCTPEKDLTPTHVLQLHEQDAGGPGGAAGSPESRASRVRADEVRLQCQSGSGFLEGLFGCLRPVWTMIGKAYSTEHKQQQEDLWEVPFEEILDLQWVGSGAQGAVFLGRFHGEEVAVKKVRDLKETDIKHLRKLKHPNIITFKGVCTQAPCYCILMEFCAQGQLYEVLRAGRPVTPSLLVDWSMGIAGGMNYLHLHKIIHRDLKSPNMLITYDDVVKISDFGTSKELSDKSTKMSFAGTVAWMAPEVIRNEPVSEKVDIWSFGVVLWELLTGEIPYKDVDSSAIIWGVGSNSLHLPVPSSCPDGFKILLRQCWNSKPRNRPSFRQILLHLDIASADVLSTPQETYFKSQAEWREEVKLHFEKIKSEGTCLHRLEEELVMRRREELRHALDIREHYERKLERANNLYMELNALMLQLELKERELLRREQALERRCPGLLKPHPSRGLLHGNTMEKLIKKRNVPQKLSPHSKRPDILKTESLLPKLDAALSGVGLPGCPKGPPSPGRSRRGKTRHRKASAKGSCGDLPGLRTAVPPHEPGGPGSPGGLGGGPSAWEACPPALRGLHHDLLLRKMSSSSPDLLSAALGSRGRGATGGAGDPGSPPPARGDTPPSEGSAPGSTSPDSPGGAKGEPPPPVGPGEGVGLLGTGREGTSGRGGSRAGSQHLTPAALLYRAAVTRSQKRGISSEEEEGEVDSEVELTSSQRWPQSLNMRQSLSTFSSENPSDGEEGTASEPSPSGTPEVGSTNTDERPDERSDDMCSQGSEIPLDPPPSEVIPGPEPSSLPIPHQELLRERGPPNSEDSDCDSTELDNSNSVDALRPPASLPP
Briefly: Selectivity interaction (KinomeScan (DiscoverX)) EUB0000045b MAP3K12.

Chain of Mitogen-activated protein kinase kinase kinase 11 (Homo sapiens) (Q16584 whole entry, looked up): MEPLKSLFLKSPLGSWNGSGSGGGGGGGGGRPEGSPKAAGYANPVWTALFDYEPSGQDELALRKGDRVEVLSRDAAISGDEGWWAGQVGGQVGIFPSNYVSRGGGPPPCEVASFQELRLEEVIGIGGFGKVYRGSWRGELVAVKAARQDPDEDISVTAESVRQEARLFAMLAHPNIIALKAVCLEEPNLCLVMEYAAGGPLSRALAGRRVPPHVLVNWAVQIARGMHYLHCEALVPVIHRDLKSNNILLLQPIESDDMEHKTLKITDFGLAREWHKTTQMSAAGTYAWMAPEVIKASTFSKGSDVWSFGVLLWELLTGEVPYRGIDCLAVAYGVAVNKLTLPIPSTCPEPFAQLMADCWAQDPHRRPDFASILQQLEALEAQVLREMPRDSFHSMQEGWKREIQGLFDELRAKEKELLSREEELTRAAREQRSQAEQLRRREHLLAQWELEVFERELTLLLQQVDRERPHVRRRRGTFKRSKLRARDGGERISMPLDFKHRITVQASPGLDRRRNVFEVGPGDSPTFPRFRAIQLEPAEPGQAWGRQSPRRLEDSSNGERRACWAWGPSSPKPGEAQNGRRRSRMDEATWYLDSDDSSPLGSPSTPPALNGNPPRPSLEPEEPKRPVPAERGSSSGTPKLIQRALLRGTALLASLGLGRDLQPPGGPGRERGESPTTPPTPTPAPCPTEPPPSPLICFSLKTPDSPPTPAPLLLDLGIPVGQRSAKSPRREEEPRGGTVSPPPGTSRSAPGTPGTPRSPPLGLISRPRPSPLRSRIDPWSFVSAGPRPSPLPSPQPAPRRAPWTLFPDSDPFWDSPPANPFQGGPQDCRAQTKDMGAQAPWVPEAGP
Chain of Tyrosine-protein kinase Fer (Homo sapiens) (P16591 whole entry, looked up): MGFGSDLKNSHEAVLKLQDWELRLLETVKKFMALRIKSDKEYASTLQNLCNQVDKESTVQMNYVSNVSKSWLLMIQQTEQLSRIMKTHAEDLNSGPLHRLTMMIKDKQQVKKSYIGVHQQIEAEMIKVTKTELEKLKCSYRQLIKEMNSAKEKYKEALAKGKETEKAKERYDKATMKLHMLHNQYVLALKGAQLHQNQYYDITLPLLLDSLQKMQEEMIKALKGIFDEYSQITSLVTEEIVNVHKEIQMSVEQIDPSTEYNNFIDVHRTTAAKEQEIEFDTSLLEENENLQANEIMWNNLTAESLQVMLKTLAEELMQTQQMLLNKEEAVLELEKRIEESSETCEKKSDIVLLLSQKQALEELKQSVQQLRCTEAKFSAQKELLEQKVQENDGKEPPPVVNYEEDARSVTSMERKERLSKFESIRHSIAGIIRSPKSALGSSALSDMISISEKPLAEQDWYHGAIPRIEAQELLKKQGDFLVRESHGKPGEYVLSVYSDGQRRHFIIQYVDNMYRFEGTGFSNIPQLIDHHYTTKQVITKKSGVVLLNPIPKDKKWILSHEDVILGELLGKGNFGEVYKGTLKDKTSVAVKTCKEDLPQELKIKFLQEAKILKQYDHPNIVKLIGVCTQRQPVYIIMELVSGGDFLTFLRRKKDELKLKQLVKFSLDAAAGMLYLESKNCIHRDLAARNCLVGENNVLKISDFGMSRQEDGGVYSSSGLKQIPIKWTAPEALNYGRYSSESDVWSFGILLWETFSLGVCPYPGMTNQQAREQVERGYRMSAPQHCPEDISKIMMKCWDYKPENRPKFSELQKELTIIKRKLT
Chain of Leucine-rich repeat serine/threonine-protein kinase 2 (Q5S007 whole entry): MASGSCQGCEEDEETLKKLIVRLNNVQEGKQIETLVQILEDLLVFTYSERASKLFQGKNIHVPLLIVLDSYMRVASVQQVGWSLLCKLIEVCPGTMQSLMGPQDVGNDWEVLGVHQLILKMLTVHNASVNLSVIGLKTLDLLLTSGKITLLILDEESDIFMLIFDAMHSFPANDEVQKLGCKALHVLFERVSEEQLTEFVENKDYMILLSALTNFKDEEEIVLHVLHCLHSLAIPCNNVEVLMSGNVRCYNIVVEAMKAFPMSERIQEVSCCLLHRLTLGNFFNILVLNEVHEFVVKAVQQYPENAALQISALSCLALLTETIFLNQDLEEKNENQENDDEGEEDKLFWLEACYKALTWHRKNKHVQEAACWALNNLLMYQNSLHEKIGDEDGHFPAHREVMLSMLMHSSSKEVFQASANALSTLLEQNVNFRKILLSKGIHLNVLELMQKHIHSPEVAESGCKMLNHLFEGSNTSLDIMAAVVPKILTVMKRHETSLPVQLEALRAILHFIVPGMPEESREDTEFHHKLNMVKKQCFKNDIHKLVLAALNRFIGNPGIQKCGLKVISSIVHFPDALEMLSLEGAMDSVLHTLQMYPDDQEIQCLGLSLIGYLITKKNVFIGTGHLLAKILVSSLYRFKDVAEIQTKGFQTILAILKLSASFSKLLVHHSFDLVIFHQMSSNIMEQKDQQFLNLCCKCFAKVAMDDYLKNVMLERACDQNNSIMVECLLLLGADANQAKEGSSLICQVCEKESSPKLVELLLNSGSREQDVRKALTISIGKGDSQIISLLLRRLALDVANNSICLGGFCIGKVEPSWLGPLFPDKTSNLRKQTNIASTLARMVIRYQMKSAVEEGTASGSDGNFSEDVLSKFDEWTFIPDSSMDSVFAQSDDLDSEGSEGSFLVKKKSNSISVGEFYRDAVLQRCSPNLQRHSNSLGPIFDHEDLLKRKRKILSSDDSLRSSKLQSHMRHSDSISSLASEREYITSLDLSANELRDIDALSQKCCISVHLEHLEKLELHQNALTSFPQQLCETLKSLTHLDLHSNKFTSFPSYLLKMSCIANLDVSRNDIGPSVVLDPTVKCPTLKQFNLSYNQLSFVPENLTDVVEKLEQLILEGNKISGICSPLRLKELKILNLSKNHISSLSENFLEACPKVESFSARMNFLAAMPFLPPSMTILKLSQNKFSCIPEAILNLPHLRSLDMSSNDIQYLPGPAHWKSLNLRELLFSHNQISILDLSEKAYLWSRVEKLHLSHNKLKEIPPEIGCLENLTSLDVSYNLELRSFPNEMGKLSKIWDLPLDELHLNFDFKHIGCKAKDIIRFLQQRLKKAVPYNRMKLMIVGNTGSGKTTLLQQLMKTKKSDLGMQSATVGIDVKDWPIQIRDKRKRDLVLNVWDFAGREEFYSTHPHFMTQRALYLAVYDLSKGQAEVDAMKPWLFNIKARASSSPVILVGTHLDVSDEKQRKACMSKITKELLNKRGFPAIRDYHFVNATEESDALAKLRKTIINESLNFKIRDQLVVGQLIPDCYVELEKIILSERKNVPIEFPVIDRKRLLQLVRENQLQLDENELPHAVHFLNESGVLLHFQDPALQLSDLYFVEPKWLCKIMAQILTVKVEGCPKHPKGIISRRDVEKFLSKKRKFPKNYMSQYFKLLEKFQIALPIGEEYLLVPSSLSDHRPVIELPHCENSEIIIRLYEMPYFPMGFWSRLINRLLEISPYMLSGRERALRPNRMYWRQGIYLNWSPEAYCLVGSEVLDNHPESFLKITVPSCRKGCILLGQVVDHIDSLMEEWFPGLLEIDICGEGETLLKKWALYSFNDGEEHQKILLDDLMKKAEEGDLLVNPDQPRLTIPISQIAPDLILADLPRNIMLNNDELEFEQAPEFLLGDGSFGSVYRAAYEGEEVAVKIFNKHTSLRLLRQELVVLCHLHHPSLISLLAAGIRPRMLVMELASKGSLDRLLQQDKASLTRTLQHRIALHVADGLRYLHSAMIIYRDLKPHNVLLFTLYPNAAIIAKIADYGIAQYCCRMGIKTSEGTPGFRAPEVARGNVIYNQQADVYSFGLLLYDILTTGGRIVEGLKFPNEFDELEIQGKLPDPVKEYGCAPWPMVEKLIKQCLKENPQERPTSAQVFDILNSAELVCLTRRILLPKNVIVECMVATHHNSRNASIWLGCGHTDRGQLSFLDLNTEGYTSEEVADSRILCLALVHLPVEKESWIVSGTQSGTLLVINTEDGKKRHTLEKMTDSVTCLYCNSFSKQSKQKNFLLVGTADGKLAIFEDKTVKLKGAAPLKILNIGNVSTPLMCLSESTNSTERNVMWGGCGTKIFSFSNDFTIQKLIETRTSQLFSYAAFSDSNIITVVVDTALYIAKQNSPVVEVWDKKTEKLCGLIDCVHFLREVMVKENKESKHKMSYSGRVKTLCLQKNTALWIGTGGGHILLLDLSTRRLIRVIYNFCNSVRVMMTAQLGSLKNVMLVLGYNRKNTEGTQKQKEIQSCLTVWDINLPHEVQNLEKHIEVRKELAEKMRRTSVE
Chain of Ribosomal protein S6 kinase alpha-1 (Q15418 whole entry): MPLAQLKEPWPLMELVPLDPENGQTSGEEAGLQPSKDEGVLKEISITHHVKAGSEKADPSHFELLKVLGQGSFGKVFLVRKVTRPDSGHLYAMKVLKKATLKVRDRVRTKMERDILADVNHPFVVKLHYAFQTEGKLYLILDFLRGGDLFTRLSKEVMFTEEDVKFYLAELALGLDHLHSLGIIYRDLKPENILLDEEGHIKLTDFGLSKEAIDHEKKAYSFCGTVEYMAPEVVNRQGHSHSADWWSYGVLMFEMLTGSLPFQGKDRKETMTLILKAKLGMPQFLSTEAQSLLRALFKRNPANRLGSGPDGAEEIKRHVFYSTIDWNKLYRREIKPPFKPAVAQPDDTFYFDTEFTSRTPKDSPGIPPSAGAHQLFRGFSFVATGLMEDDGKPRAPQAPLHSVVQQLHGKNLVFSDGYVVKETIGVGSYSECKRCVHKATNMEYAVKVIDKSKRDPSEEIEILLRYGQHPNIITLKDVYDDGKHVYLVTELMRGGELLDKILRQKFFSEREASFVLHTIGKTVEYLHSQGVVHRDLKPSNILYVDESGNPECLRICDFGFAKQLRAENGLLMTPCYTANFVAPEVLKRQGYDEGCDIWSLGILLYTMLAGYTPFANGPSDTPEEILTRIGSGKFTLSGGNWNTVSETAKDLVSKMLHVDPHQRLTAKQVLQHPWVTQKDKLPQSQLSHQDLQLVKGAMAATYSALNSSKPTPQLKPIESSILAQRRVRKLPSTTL

`N#Cc1cccc(-c2c[nH]c3ncnc(N4CCOCC4)c23)c1` gave a % of control in test [1] of 74%.

`CC[C@@H]1[C@H](F)C(=O)N[C@@H]1COc1nccc2cc(C(N)=O)c(OC)cc12` [ZIMLOVISERTIB]: the % of inhibition is -6.1% in test [2], 2.32% in test [3] and 85.1% in test [4].

`C=CC(=O)Nc1cccc(C(=O)Nc2ccc(Nc3cc(-c4[nH]c(SC)nc4C)ccn3)cc2)c1`: the % of control in test [5] (at 1 µM) is 28%; in test [5] (at 5 µM) it was 13%.

As for `CN(C(=O)c1cnn2cccnc12)c1cc2c(cc1N1CCOCC1)C(=O)N(C[C@@H](F)C(C)(C)O)C2`, the dTM in test [6] came out at 0.5 K.

With `C=CC(=O)Nc1cc(-n2c(=O)ccc3cnc4ccc(-c5ccc(NS(C)(=O)=O)cc5)cc4c32)ccc1C`, the % of control in test [7] (at 1 µM) amounted to 70%; in test [7] (at 10 µM) it was 59%.
